Data: publication PMC9068772, “Discovery of first-in-class nanomolar inhibitors of heptosyltransferase I reveals a new aminoglycoside target and potential alternative mechanism of action” (Scientific Reports, 2022)
Entries after “also recorded” stand apart in the source; their conditions may differ.

Assays:
Type in all cases: biochemical, E. coli K12
HepI R120A = target: T1, HepI R120A (Escherichia coli, UniProt P24173, R120A); assay: HepI inhibition, ADP/NADH coupled assay (R120A mutant)
T1 construct: made in house; host or cells: E. coli One Shot BL-21-AI (stated for HepI in general)
T1 sequence (P24173 whole entry R120A): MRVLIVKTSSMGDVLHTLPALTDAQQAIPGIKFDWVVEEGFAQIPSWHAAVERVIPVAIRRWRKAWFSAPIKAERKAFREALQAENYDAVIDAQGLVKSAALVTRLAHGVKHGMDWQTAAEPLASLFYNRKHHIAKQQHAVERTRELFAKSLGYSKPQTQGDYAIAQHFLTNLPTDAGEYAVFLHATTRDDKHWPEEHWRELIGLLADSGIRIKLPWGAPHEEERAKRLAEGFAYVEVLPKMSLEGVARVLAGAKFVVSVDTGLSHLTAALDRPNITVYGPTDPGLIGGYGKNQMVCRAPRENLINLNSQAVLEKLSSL
Experimental: (§1) As previously reported[11],[14],[15], an ADP/NADH coupled assay was used to monitor HepI activity by monitoring the absorbance change at 340 nm at 37 °C on a Cary Bio 100 UV–Vis Spectrometer. Under normal conditions, the assay buffer was composed of 50 mM HEPES, 50 mM KCl, 10 mM MgCl2, pH 7.5. The coupled enzyme reaction additionally contained 100 μM phosphoenolpyruvate, 100 μM NADH, 100 μM dithiothreitol (DTT) and 0.05 U/μL of both pyruvate kinase and lactate dehydrogenase. 100 μM ADPH was used when ODLA concentration was varied and 100 μM ODLA was used when ADPH was varied. Once a stable baseline was established (~ 5 min), the reaction was initiated by addition of HepI to a final concentration of 50 nM or 100 nM (for high and lower substrate concentrations respectively) and all reported reaction rates are after background subtraction. When running 12 samples at once, plastic cuvette stirs and a repeat pipettor was used to inject 200 μL enzyme. Inhibition of HepI was monitored using the same ADP/NADH coupled assay, all conditions of the assay were the same as previously described unless otherwise stated. Ki values for each of the compounds were determined by varying compound final concentration from 100 μm to 10 nm, and a final concentration of 10 μM ODLA. Competition assays against ADPH were done with excess ODLA (100 μM) and varying ADPH from 2–0.25 μM. Competition assays against ODLA were done with excess ADPH (100 μM) and varying ODLA from 2–0.25 μM. Reactions were started with addition of enzyme and inhibitor was varied from 30–0.01 μM. Kinetics were fit to Lineweaver-Burke (Eq. 1), competitive (Eq. 2), non-competitive (Eq. 3), mixed (Eq. 4), Dixon (Eq. 5), or Cornish-Bowden (Eq. 6) models. All fitting and plotting was done through MATLAB R2018A.1 1/V1/[S]=KM/Vmax[S]+1/Vmax 2 V[S]=Vmax[S]/KM1+[I]/Ki+[S] 3 V[S]=Vmax[S]/1+([I]/Ki)/KM+[S] 4 V[S]=Vmax[S]/KM(1+[I]/Ki)+[S](1+[I]/αKi) 5 1/V[I]=KM1+I/Ki+[S]1+I/αKi/Vmax[S] 6 [S]/V[I]=KM1+I/Ki+[S]1+I/αKi/Vmax

HepI K64A = target: T2, HepI K64A (Escherichia coli, UniProt P24173, K64A); assay: HepI inhibition, ADP/NADH coupled assay (K64A mutant)
T2 construct: made in house; host or cells: E. coli One Shot BL-21-AI (stated for HepI in general)
T2 sequence (P24173 whole entry K64A): as the sequence (P24173 whole entry R120A) above, with K64A, A120R counted along it
Experimental: as §1

HepI R61A = target: T3, HepI R61A (Escherichia coli, UniProt P24173, R61A); assay: HepI inhibition, ADP/NADH coupled assay (R61A mutant)
T3 construct: made in house; host or cells: E. coli One Shot BL-21-AI (stated for HepI in general)
T3 sequence (P24173 whole entry R61A): as the sequence (P24173 whole entry R120A) above, with R61A, A120R counted along it
Experimental: as §1

Row | Structure (SMILES) | Ki (HepI R120A) [µM] | ΔΔG (kcal/mol) Exp (HepI R120A; Arg120Ala relative to WT) [kcal/mol] | ΔG (kcal/mol) Exp (HepI R120A; Arg120Ala, from Ki) [kcal/mol] | Ki relative to WT (HepI R120A; HepI R120A vs WT) | Ki (HepI K64A) [µM] | kcat (HepI K64A; HepI K64A in presence of inhibitor) [s⁻¹] | Ki relative to WT (HepI K64A; HepI K64A vs WT) | ΔΔG (kcal/mol) Exp (HepI K64A; Lys64Ala relative to WT) [kcal/mol] | ΔG (kcal/mol) Exp (HepI K64A; Lys64Ala, from Ki) [kcal/mol] | Ki (HepI R61A) [µM] | ΔΔG (kcal/mol) Exp (HepI R61A; Arg61Ala relative to WT) [kcal/mol] | ΔG (kcal/mol) Exp (HepI R61A; Arg61Ala, from Ki) [kcal/mol] | kcat (HepI R61A; HepI R61A in presence of inhibitor) [s⁻¹] | Ki relative to WT (HepI R61A; HepI R61A vs WT)
1 | NC[C@H]1O[C@H](O[C@H]2[C@H](O)[C@@H](O[C@H]3O[C@H](CO)[C@@H](O)[C@H](N)[C@H]3O)[C@H](N)C[C@@H]2N)[C@H](N)C[C@@H]1O [Tobramycin] | 0.422 ± 0.186 | -0.6 ± 0.2 | -8.7 ± 0.2 | ~ twofold tighter; also recorded: lowering of the inhibition constant | – | – | – | – | – | – | – | – | – | –
2 | [H]/N=C(/N)N[C@H]1[C@H](O)[C@@H](O)[C@H](O[C@@H]2O[C@@H](C)[C@](O)(C=O)[C@H]2O[C@@H]2O[C@@H](CO)[C@H](O)[C@@H](O)[C@@H]2NC)[C@@H](N/C(N)=N\[H])[C@@H]1O [Streptomycin] | – | – | – | – | 5.76 ± 0.485 | 0.117 ± 0.009 | increased the Ki values an order of magnitude | 1.3 ± 0.1 | -7.1 ± 0.1 | 7.89 ± 3.59 | 1.5 ± 0.2 | -7.0 ± 0.2 | 0.142 ± 0.031 | increased the Ki values an order of magnitude
